From patent publication US8110703B2, “Retinoid derivative and pharmaceutical composition and use thereof” (Anhui Medical University, priority 2008, dated 2012)
Where “and” joins values, the source holds several entries; their conditions need not be identical. Equal entries are not always repeated. Marks after values point to notes of the source that are not given here.

What was measured:
Type in all cases: cell-based
liver cancer HepG2 cells = experiment: MTT cell growth and proliferation experiment, HepG2; parameters: key to Inhibition Rate: (control OD570 − test OD570)/control OD570, as fraction; conditions: for Inhibition Rate: fraction
Procedure, shortened: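 After treatment, 20 ul/well of MTT (5 g/L) was added for 4 h at 37° C. The medium was then removed and 20 ul/well DMSO added to dissolve the crystals. Plates were shaken 10 min and read at 570 nm. Inhibition rate was (control OD570 − experimental OD570)/control OD570 × 100%, averaged over three experiments.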

HepG2 cells [1] = experiment: γ-GT specific activity of HepG2 cells
HepG2 cells [2] = experiment: AFP secretory volume of HepG2 cells; conditions: for AFP: HepG2 cells
NB4 cells = experiment: Cell cycle analysis by flow cytometer, NB4; parameters: S %: dose or concentration left out as unconfirmed; conditions: 72 h
Procedure, shortened: (§1)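 NB4 and K562 cells in RPMI1640 with 10% FBS were exposed to compounds […] for 72 h. Then they were fixed in 70% cold ethanol and stained with 5 ug/ml propidium iodide for cell-cycle profiling by flow cytometry.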

A549 cells = experiment: Differentiation index: CEA secretory volume of A549 cells; conditions: A549 culture supernatant, 10 ug/ml, 3 d, DMSO
Method: 1.6 Detection of Differentiation Index The cultured A549 cells are randomly divided into 6 10 μg/ml drug groups, cell control groups, solvent control groups (DMSO and ethanol) and 10 μg/ml fenretinide control groups (11 in total). The control groups and drug groups are cultured for 3 days to collect respective 3 tubes of cell culture solutions which are centrifugated at a speed of 4000 r/min for 5 min to take the supernatant and detect the CEA content of the kit by using enzyme kinetics and CEA detection.

K562 cells = experiment: Cell cycle analysis by flow cytometer, K562; parameters: S %: dose or concentration left out as unconfirmed; conditions: 72 h
Procedure, shortened: as §1

HepG2 cells [3] = experiment: Cell cycle and apoptosis by flow cytometry, HepG2; conditions: for Apoptosis Rate (%) / G0-G1 (%) / G2-M (%) / S %: HepG2, flow cytometry
A549 lung cancer cells = experiment: MTT cell growth and proliferation experiment, A549; parameters: key to Inhibition Rate: (control OD570 − test OD570)/control OD570, as fraction
Procedure, shortened: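 Cells in DMEM/10% calf serum were treated with retinoic acid derivatives at 1, 5 and 10 ug/ml (DMSO <0.1%) for 3 d, then with MTT for 4 h at 37° C. Read-out was OD570 after DMSO solubilisation, giving % growth inhibition versus control wells. A time-course at 10 umol/L ran for 1, 2, 3 and 7 days.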

[4] = HepG2, MTT OD 570 nm, 1 ug/ml, 3 d, solvent not given
[5] = HepG2, MTT OD 570 nm, 5 ug/ml, 3 d, solvent not given
[6] = HepG2, MTT OD 570 nm, 10 ug/ml, 3 d, solvent not given
[7] = HepG2, MTT time gradient, 10 ug/ml, 1 d
[8] = HepG2, MTT time gradient, 10 ug/ml, 2 d
[9] = HepG2, MTT time gradient, 10 ug/ml, 3 d
[10] = HepG2, MTT time gradient, 10 ug/ml, 7 d
[11] = HepG2, MTT, 1 ug/ml, 3 d, solvent not given
[12] = HepG2, MTT, 5 ug/ml, 3 d, solvent not given
[13] = HepG2, MTT, 10 ug/ml, 3 d, solvent not given
[14] = HepG2, Table 5 repeat MTT, 10 ug/ml, 3 days, DMSO
[15] = A549, MTT OD 570 nm, 1 ug/ml, 3 d, solvent DMSO (D)
[16] = A549, MTT OD 570 nm, 5 ug/ml, 3 d, solvent DMSO (D)
[17] = A549, MTT OD 570 nm, 10 ug/ml, 3 d, solvent DMSO (D)
[18] = A549, MTT time gradient, 10 ug/ml, 1 d
[19] = A549, MTT time gradient, 10 ug/ml, 1 d, fraction
[20] = A549, MTT time gradient, 10 ug/ml, 2 d
[21] = A549, MTT time gradient, 10 ug/ml, 2 d, fraction
[22] = A549, MTT time gradient, 10 ug/ml, 3 d
[23] = A549, MTT time gradient, 10 ug/ml, 3 d, fraction
[24] = A549, MTT time gradient, 10 ug/ml, 7 d
[25] = A549, MTT time gradient, 10 ug/ml, 7 d, fraction
[26] = HepG2, Table 5 repeat MTT, 10 ug/ml, 3 days, ethanol

In the case of CC1=C(/C=C/C(C)=C/C=C/C(C)=C/C(=O)Nc2cccc(OC(F)(F)F)c2)C(C)(C)CCC1 [Example 6a-02, (3-trifluoromethoxyphenyl)-(all-trans)-3,7-dimethyl-9-(2,6,6-trimethyl-1-cyclohexen-1-yl)-2,4,6,8-nonatetraenoic acid amide], the “OD Value (x ± s)” value (liver cancer HepG2 cells; [4]) is reported as 1.38 ± 0.62, the “OD Value (x ± s)” value (liver cancer HepG2 cells; [5]) is reported as 1.16 ± 0.38 and the “OD Value (x ± s)” value (liver cancer HepG2 cells; [6]) is reported as 0.84 ± 0.31. For the same compound, the “OD Value (x ± s)” value (liver cancer HepG2 cells; [7]) was 1.60 ± 0.19, the “Inhibition Rate” value (liver cancer HepG2 cells; [7]) was 0.07 and the “OD Value (x ± s)” value (liver cancer HepG2 cells; [8]) was 1.14 ± 0.09. For the same compound, the “Inhibition Rate” value (liver cancer HepG2 cells; [8]) was 0.32, the “OD Value (x ± s)” value (liver cancer HepG2 cells; [9]) was 0.81 ± 0.12 and the “Inhibition Rate” value (liver cancer HepG2 cells; [9]) was 0.34. The “OD Value (x ± s)” value (liver cancer HepG2 cells; [10]) was 0.49 ± 0.32, the “Inhibition Rate” value (liver cancer HepG2 cells; [10]) was 0.63 and the “Inhibition Rate” value (liver cancer HepG2 cells; [11]) was 0.18. For the same compound, the “Inhibition Rate” value (liver cancer HepG2 cells; [12]) was 0.31, the “Inhibition Rate” value (liver cancer HepG2 cells; [13]) was 0.50 and the “OD Value (x ± s)” value (liver cancer HepG2 cells; [14]) was 1.125 ± 0.146. The “Inhibition Rate” value (liver cancer HepG2 cells; [14]) was 0.480*, the γ-GT (HepG2 cells [1]; DMSO) was 42.3 ± 2.0 U/L and the AFP (HepG2 cells [2]; DMSO) was 15.6 µg/L. The G1 % (NB4 cells) was 75.47%, the G2 % (NB4 cells) was 5.52% and the S % (NB4 cells) was 19.01%. It also gave a CEA (A549 cells) of 3.5 µg/L, a G1 % (K562 cells) of 32.2% and a G2 % (K562 cells) of 10.9%. For the same compound, the S % (K562 cells) was 56.8%, the “Apoptosis Rate (%)” value (HepG2 cells [3]) was 15.7* % and the “G0-G1 (%)” value (HepG2 cells [3]) was 57.5%. The “G2-M (%)” value (HepG2 cells [3]) was 2.61%, the “S %” value (HepG2 cells [3]) was 25.4% and the “OD Value (x ± s)” value (A549 lung cancer cells; [15]) was 1.637 ± 0.146 and 1.614 ± 0.146. The “OD Value (x ± s)” value (A549 lung cancer cells; [16]) was 1.613 ± 0.120 and 1.580 ± 0.096, the “OD Value (x ± s)” value (A549 lung cancer cells; [17]) was 1.362 ± 0.077 and 1.498 ± 0.218 and the “OD Value (x ± s)” value (A549 lung cancer cells; [18]) was 0.774 ± 0.030. For the same compound, the “Inhibition Rate” value (A549 lung cancer cells; [19]) was 0.156, the “OD Value (x ± s)” value (A549 lung cancer cells; [20]) was 1.065 ± 0.045 and the “Inhibition Rate” value (A549 lung cancer cells; [21]) was 0.272. For the same compound, the “OD Value (x ± s)” value (A549 lung cancer cells; [22]) was 0.408 ± 0.028, the “Inhibition Rate” value (A549 lung cancer cells; [23]) was 0.561 and the “OD Value (x ± s)” value (A549 lung cancer cells; [24]) was 0.666 ± 0.049. For the same compound, the “Inhibition Rate” value (A549 lung cancer cells; [25]) was 0.679, the “Inhibition Rate” value (A549 lung cancer cells; A549, MTT, 1 ug/ml, 3 d, solvent DMSO (D), given as fraction) was 0.123 and 0.135 and the “Inhibition Rate” value (A549 lung cancer cells; A549, MTT, 5 ug/ml, 3 d, solvent DMSO (D), given as fraction) was 0.136 and 0.154. For the same compound, the “Inhibition Rate” value (A549 lung cancer cells; A549, MTT, 10 ug/ml, 3 d, solvent DMSO (D), given as fraction) was 0.270 and 0.197.
CC1=C(/C=C/C(C)=C/C=C/C(C)=C/C(=O)Oc2ccc(N)cc2C(F)(F)F)C(C)(C)CCC1 [Example 4a-02, (4-amino-2-trifluoromethylphenyl)-(all-trans)-3,7-dimethyl-9-(2,6,6-trimethyl-1-cyclohexen-1-yl)-2,4,6,8-nonatetraenoate] was tested, and the “OD Value (x ± s)” value (liver cancer HepG2 cells; [4]) was 1.50 ± 0.24, the “OD Value (x ± s)” value (liver cancer HepG2 cells; [5]) was 1.32 ± 0.50 and the “OD Value (x ± s)” value (liver cancer HepG2 cells; [6]) was 0.86 ± 0.13. The “OD Value (x ± s)” value (liver cancer HepG2 cells; [7]) was 1.53 ± 0.27, the “Inhibition Rate” value (liver cancer HepG2 cells; [7]) was 0.11 and the “OD Value (x ± s)” value (liver cancer HepG2 cells; [8]) was 1.36 ± 0.13. For the same compound, the “Inhibition Rate” value (liver cancer HepG2 cells; [8]) was 0.20, the “OD Value (x ± s)” value (liver cancer HepG2 cells; [9]) was 0.74 ± 0.08 and the “Inhibition Rate” value (liver cancer HepG2 cells; [9]) was 0.46. For the same compound, the “OD Value (x ± s)” value (liver cancer HepG2 cells; [10]) was 0.70 ± 0.05, the “Inhibition Rate” value (liver cancer HepG2 cells; [10]) was 0.48 and the “Inhibition Rate” value (liver cancer HepG2 cells; [11]) was 0.11. For the same compound, the “Inhibition Rate” value (liver cancer HepG2 cells; [12]) was 0.22, the “Inhibition Rate” value (liver cancer HepG2 cells; [13]) was 0.49 and the “OD Value (x ± s)” value (liver cancer HepG2 cells; [26]) was 1.409 ± 0.090. For the same compound, the “Inhibition Rate” value (liver cancer HepG2 cells; [26]) was 0.349*, the γ-GT (HepG2 cells [1]; ethanol) was 32.6 ± 1.5 U/L and the “effects on AFP secretory volume (statistics, in words)” value (HepG2 cells [2]; HepG2, compared with the control groups, P less than 0.05) was “meaningful in statistics”. For the same compound, the AFP (HepG2 cells [2]; ethanol) was 10.4* ug/L, the G1 % (NB4 cells) was 52.59% and the G2 % (NB4 cells) was 7.68%. It also gave a S % (NB4 cells) of 39.73%, a CEA (A549 cells) of 3.1 µg/L and a G1 % (K562 cells) of 33.1%. The G2 % (K562 cells) was 11.5%, the S % (K562 cells) was 55.4% and the “effect on the apoptosis of HepG2 cells (ranking in words)” value (HepG2 cells [3]; HepG2) was “most greatly effects on the apoptosis of HepG2 cells”. For the same compound, the “Apoptosis Rate (%)” value (HepG2 cells [3]) was 38.1* %, the “G0-G1 (%)” value (HepG2 cells [3]) was 30.9% and the “G2-M (%)” value (HepG2 cells [3]) was 3.20%. The “S %” value (HepG2 cells [3]) was 28.5%, the “OD Value (x ± s)” value (A549 lung cancer cells; [15]) was 1.644 ± 0.272 and 2.020 ± 0.317 and the “OD Value (x ± s)” value (A549 lung cancer cells; [16]) was 1.618 ± 0.087 and 1.979 ± 0.138. The “OD Value (x ± s)” value (A549 lung cancer cells; [17]) was 1.808 ± 0.143, the “OD Value (x ± s)” value (A549 lung cancer cells; [18]) was 0.815 ± 0.045 and the “Inhibition Rate” value (A549 lung cancer cells; [19]) was 0.111. For the same compound, the “OD Value (x ± s)” value (A549 lung cancer cells; [20]) was 1.176 ± 0.021, the “Inhibition Rate” value (A549 lung cancer cells; [21]) was 0.196 and the “OD Value (x ± s)” value (A549 lung cancer cells; [22]) was 0.720 ± 0.025. For the same compound, the “Inhibition Rate” value (A549 lung cancer cells; [23]) was 0.223, the “OD Value (x ± s)” value (A549 lung cancer cells; [24]) was 1.144 ± 0.150 and the “Inhibition Rate” value (A549 lung cancer cells; [25]) was 0.448.
